What was measured:
Conditions in all cases: averaged IC50
[1] = target: His-tagged recombinant human MER cytoplasmic domain (Homo sapiens (Human), UniProt Q12866); assay: MER Enzyme Assay (LanthaScreen Eu Kinase Binding, TR-FRET)
Procedure, shortened: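 LanthaScreen Eu kinase binding (tracer displacement) assay with His-tagged human MER cytoplasmic domain, 60 min incubation at 22 °C. TR-FRET dual-wavelength emission ratio converted to percent of control; IC50 is where the 4-parameter logistic fit crosses 50 POC.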

[2] = target: GST-tagged recombinant human TYRO3 kinase domain (Homo sapiens (Human), UniProt Q06418); assay: TYRO3 Enzyme Assay (LanthaScreen Eu Kinase Binding, TR-FRET)
GST-tagged recombinant human TYRO3 kinase domain, sequence (Q06418 518-790): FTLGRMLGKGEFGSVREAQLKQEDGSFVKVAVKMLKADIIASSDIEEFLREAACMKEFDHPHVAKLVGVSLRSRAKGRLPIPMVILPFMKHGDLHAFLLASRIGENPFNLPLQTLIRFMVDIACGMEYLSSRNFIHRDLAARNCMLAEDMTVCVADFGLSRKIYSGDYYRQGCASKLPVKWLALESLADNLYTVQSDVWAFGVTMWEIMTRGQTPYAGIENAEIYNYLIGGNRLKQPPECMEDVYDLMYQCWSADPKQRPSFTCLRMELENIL
Procedure, shortened: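 LanthaScreen Eu binding (tracer displacement) format read by TR-FRET after 60 min at 22 °C. Emission ratio converted to percent of control; IC50 taken where a 4-parameter logistic fit crosses 50 POC.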

[3] = target: His-tagged recombinant human AXL cytoplasmic domain (Homo sapiens (Human), UniProt P30530); assay: AXL Enzyme Assay (LanthaScreen Eu Kinase Binding, TR-FRET)
His-tagged recombinant human AXL cytoplasmic domain, sequence (P30530 473-894): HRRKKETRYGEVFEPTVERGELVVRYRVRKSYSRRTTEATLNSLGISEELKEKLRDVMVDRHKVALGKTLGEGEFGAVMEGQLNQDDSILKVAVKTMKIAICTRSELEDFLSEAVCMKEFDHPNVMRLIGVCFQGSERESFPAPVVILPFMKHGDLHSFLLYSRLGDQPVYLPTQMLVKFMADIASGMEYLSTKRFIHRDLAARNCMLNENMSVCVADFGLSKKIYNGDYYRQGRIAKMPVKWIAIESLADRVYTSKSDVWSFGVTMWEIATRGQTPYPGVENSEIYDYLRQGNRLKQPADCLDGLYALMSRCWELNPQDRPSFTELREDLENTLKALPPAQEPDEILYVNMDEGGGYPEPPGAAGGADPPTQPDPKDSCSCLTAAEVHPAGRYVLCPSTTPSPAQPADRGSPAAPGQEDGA
Method: Compounds of Formula I were screened for their ability to inhibit AXL kinase using Invitrogen's LanthaScreen™ Eu Kinase Binding technology. […] After a 60-minute incubation at 22° C., the reaction was measured using a PerkinElmer EnVision multimode plate reader via TR-FRET dual wavelength detection, and the percent of control (POC) was calculated using a ratiometric emission factor. […] The POC values are fit to a 4 parameter logistic curve and the IC50 value is point where the curve crosses 50 POC.

His-tagged recombinant human MER cytoplasmic domain, sequence (Q12866 527-999): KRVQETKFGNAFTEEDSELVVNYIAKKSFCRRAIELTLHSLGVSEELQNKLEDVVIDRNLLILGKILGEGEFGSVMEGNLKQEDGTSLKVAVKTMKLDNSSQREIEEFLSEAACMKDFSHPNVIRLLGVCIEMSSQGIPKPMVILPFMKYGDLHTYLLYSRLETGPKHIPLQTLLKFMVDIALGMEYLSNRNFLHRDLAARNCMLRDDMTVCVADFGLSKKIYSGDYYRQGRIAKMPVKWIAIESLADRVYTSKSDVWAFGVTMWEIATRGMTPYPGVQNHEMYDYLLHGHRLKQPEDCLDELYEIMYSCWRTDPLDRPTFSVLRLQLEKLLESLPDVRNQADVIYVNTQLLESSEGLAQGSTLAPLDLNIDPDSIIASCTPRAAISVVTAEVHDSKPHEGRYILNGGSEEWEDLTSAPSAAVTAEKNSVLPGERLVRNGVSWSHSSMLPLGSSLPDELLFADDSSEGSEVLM

Compound | IC50 [1] [nM] | IC50 [2] [nM] | IC50 [3] [nM]
CNc1cc2c(cn1)c(-c1cnn(C)c1)nn2[C@@H]1CC[C@H](Oc2ccccc2)[C@@H](O)C1 (racemic) [Example 470, Racemic-(1S,2S,5R)-5-(3-(1-methyl-1H-pyrazol-4-yl)-6-(methylamino)-1H-pyrazolo[4,3-c]pyridin-1-yl)-2-phenoxycyclohexan-1-ol] | < 10 | 10 to 100 | < 10
CCNc1cc2c(cn1)c(N1CC[C@@H](N(C)C)C1)nn2[C@H]1CC[C@@H](Oc2nccc(C(F)(F)F)c2F)CC1 (stereo in doubt) [Example 334, 3-(®-3-(dimethylamino)pyrrolidin-1-yl)-N-ethyl-1-((1s,4S)-4-((3-fluoro-4-(trifluoromethyl)pyridin-2-yl)oxy)cyclohexyl)-1H-pyrazolo[4,3-c]pyridin-6-amine] | < 10 | < 10 | < 10
CNc1cc2c(cn1)c(-c1ccc(C3(N4CCN(C)CC4)CC3)cc1)nn2[C@H]1CC[C@@H](Oc2ccc(=O)n(C)n2)CC1 [Example 53, 2-methyl-6-(((1s,4s)-4-(6-(methylamino)-3-(4-(1-(4-methylpiperazin-1-yl)cyclopropyl)phenyl)-1H-pyrazolo[4,3-c]pyridin-1-yl)cyclohexyl)oxy)pyridazin-3(2H)-one] | < 10 | 100 to 1000 | < 10
Cn1cc(-c2nn([C@H]3CC[C@@H](Oc4ccc(=O)n(C)n4)CC3)c3cc(N)ncc23)cn1 [Example 75, 6-(((1s,4s)-4-(6-amino-3-(1-methyl-1H-pyrazol-4-yl)-1H-pyrazolo[4,3-c]pyridin-1-yl)cyclohexyl)oxy)-2-methylpyridazin-3(2H)-one] | 1000 to 10000 | 1000 to 10000 | 1000 to 10000
CNc1cc2c(cn1)c(-c1ccc(CN3CCN(CCO)CC3)cc1)nn2[C@H]1CC[C@@H](Oc2ccc(=O)n(C)n2)CC1 [Example 78, 6-(((1s,4s)-4-(3-(4-((4-(2-hydroxyethyl)piperazin-1-yl)methyl)phenyl)-6-(methylamino)-1H-pyrazolo[4,3-c]pyridin-1-yl)cyclohexyl)oxy)-2-methylpyridazin-3(2H)-one] | < 10 | 100 to 1000 | < 10
CCNc1cc2c(cn1)c(-c1ncco1)nn2[C@H]1CC[C@@H](Oc2ccc(=O)n(C)n2)CC1 [Example 81, 6-(((1s,4s)-4-(6-(ethylamino)-3-(oxazol-2-yl)-1H-pyrazolo[4,3-c]pyridin-1-yl)cyclohexyl)oxy)-2-methylpyridazin-3(2H)-one bis(2,2,2-trifluoroacetate)] | 1000 to 10000 | 1000 to 10000 | 1000 to 10000
CCNc1cc2c(cn1)c(-c1ccn(CCN3CCOCC3)n1)nn2[C@H]1CC[C@@H](Oc2ccc(=O)n(C)n2)CC1 [Example 101, 6-(((1s,4s)-4-(6-(ethylamino)-3-(1-(2-morpholinoethyl)-1H-pyrazol-3-yl)-1H-pyrazolo[4,3-c]pyridin-1-yl)cyclohexyl)oxy)-2-methylpyridazin-3(2H)-one] |  | 1000 to 10000 | 1000 to 10000
CNc1cc2c(cn1)c(-c1cnn(C)c1)nn2[C@H]1CC[C@@H](Oc2ccc(=O)[nH]c2C(F)(F)F)CC1 [Example 105, 5-(((1s,4s)-4-(3-(1-methyl-1H-pyrazol-4-yl)-6-(methylamino)-1H-pyrazolo[4,3-c]pyridin-1-yl)cyclohexyl)oxy)-6-(trifluoromethyl)pyridin-2(1H)-one] | < 10 | < 10 | < 10
CCNc1cc2c(cn1)c(-c1cnn(C)c1)nn2[C@H]1CC[C@@H](Oc2cccn(C)c2=O)CC1 [Example 109, 3-(((1s,4s)-4-(6-(ethylamino)-3-(1-methyl-1H-pyrazol-4-yl)-1H-pyrazolo[4,3-c]pyridin-1-yl)cyclohexyl)oxy)-1-methylpyridin-2(1H)-one] |  | 1000 to 10000 | 1000 to 10000
CCn1c(O[C@H]2CC[C@@H](n3nc(-c4cnn(C)c4)c4cnc(NC)cc43)CC2)cccc1=O [Example 111, 1-ethyl-6-(((1s,4s)-4-(3-(1-methyl-1H-pyrazol-4-yl)-6-(methylamino)-1H-pyrazolo[4,3-c]pyridin-1-yl)cyclohexyl)oxy)pyridin-2(1H)-one] | < 10 | 10 to 100 | < 10
CNc1cc2c(cn1)c(-c1cnn(C)c1)nn2[C@H]1CC[C@@H](Oc2cccnc2C(F)(F)F)CC1 [Example 137, N-methyl-3-(1-methyl-1H-pyrazol-4-yl)-1-((1s,4s)-4-((2-(trifluoromethyl)pyridin-3-yl)oxy)cyclohexyl)-1H-pyrazolo[4,3-c]pyridin-6-amine] | < 10 | < 10 | < 10
CNc1cc2c(cn1)c(-c1cnn(C)c1)nn2[C@H]1CC[C@@H](Oc2cccnc2C#N)CC1 [Example 140, 3-(((1s,4s)-4-(3-(1-methyl-1H-pyrazol-4-yl)-6-(methylamino)-1H-pyrazolo[4,3-c]pyridin-1-yl)cyclohexyl)oxy)picolinonitrile] | < 10 | < 10 | < 10
CNc1cc2c(cn1)c(-c1cnn(C(C)(C)C#N)c1)nn2[C@H]1CC[C@@H](Oc2cccnc2C(F)(F)F)CC1 [Example 160, 2-methyl-2-(4-(6-(methylamino)-1-((1s,4s)-4-((2-(trifluoromethyl)pyridin-3-yl)oxy)cyclohexyl)-1H-pyrazolo[4,3-c]pyridin-3-yl)-1H-pyrazol-1-yl)propanenitrile] | < 10 | < 10 | < 10
CCNc1cc2c(cn1)c(-c1ccc3c(c1)CN(C)S3(=O)=O)nn2[C@H]1CC[C@@H](Oc2cnn(C)c2C(F)(F)F)CC1 [Example 224, 5-(6-(ethylamino)-1-((1s,4s)-4-((1-methyl-5-(trifluoromethyl)-1H-pyrazol-4-yl)oxy)cyclohexyl)-1H-pyrazolo[4,3-c]pyridin-3-yl)-2-methyl-2,3-dihydrobenzo[d]isothiazole 1,1-dioxide] |  | 1000 to 10000 | 1000 to 10000
CNc1cc2c(cn1)c(-c1cnn(C)c1)nn2[C@H]1CC[C@@H](Oc2ccccc2)CC1 [Example 371, N-methyl-3-(1-methyl-1H-pyrazol-4-yl)-1-((1s,4s)-4-phenoxycyclohexyl)-1H-pyrazolo[4,3-c]pyridin-6-amine] | < 10 |  | < 10
CNc1cc2c(cn1)c(-c1cnn(C(C)(C)C#N)c1)nn2[C@H]1CC[C@@H](Oc2ccccc2F)CC1 [Example 394, 2-(4-(1-((1s,4s)-4-(2-fluorophenoxy)cyclohexyl)-6-(methylamino)-1H-pyrazolo[4,3-c]pyridin-3-yl)-1H-pyrazol-1-yl)-2-methylpropanenitrile] | < 10 |  | < 10
CNc1cc2c(cn1)c(-c1cnn(CCN3CCOCC3)c1)nn2[C@H]1CC[C@@H](Oc2ccccc2F)CC1 [Example 397, 1-((1s,4s)-4-(2-fIuorophenoxy)cyclohexyl)-N-methyl-3-(1-(2-morpholinoethyl)-1H-pyrazol-4-yl)-1H-pyrazolo[4,3-c]pyridin-6-amine] | < 10 |  | < 10
CNc1cc2c(cn1)n(-c1cnn(C)c1)nc2[C@H]1CC[C@@H](Oc2ccccc2F)CC1 [Example 479, 3-((1s,4s)-4-(2-fluorophenoxy)cyclohexyl)-N-methyl-1-(1-methyl-1H-pyrazol-4-yl)-1H-pyrazolo[3,4-c]pyridin-5-amine] | < 10 |  | < 10

Reference: patent US11247990B1, “Bicyclic fused pyridine compounds as inhibitors of TAM kinases” (ARRAY BIOPHARMA INC., priority 2017, dated 2022)
